We go through 19 compounds from patent US8247403B2, “Benzoxazepine derivatives and use thereof” (Takeda Pharmaceutical Company Limited, priority 2007, dated 2012).

For experiment [1], the target named is serotonin 5-HT2C receptor (Homo sapiens, UniProt P28335, I156V/I160V/N158S). Description: cell-based. The settings on record: CHO, read-out: ratio to maximum response by 5-HT (1 μM).
The test system of experiment [2] is female spinal cord transected rat whose hypogastric nerve and pudendal nerves were bilaterally cut. In words: Urethral closure response induced by increased bladder pressure in rat with hypogastric and pudendal nerves cut. It is filed as in vivo. The method, then:
SD female rats (body weight 230-274 g) were anesthetized with urethane (Wako Pure Chemical Industries, Ltd.), and the spinal cord was cut at T8-9 level to eliminate the micturition reflex. During the operation, halothane (Takeda Pharmaceutical Company Limited) anesthesia was added as necessary. The abdomen was opened, the bladder neck was ligated with a suture thread, and then, the hypogastric nerve and the pudendal nerves were bilaterally cut. A catheter (PE-90, Clay Adams) was inserted in the bladder, and the other end of the bladder catheter was connected to the pressure transducer and an aquatic reservoir (60 ml syringe) of saline via a three-way cock. A microchip transducer catheter (SPR-524, Millar Instruments Inc.) was inserted from the urethral orifice toward the bladder, and the transducer part was adjusted to be in the urethra at 10.0-15.0 mm from the urethral orifice using the scale on the catheter surface. The topical changes in the urethral pressure (hereinafter to be referred to as urethral pressure for convenience) measured by the microchip transducer were input into a computer via an amplifier (BP Amp; ADINSTRUMENTS) and a data analyzer (Powerlab 4/25; ADINSTRUMENTS; sampled at 1000 Hz), and recorded on a hard disk. […] The response of the urethra induced by the increased bladder pressure was repeatedly measured, and the average value of the last two measures was taken as the value before drug administration. The evaluation item was reflective urethral closure response, and the average urethral pressure for 30 seconds before increasing the bladder pressure and 30 seconds when the bladder pressure was raised to 50 cm was calculated. Then, the value before bladder pressure increase was subtracted from the value during bladder pressure increase and taken as the urethral closure response. […] The drug was dissolved in saline with dimethylformamide, and intravenously administered at 1 ml/kg.

SMILES strings stand for the structures. Where a name gives a salt, the structure may show the parent alone.

Chain of serotonin 5-HT2C receptor (P28335 33-458 I156V/N158S/I160V limits assumed): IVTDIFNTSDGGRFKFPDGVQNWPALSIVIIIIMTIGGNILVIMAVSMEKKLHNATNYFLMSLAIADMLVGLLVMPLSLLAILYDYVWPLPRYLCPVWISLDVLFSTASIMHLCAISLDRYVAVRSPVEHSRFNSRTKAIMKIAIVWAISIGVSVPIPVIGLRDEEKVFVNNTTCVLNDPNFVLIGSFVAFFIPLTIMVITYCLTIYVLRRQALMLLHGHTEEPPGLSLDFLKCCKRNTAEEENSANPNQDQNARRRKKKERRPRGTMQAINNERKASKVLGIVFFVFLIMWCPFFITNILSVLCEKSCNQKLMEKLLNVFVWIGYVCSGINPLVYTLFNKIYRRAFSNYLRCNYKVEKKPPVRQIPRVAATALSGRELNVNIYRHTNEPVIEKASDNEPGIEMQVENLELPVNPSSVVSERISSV

In the case of `C1=C(c2cccc3c2OCCNC3)CCC1` [Example 26, 9-(cyclopenta-1-en-1-yl)-2,3,4,5-tetrahydro-1,4-benzoxazepine hydrochloride], in experiment [1], the activation at 1 µM was determined as 101%.

In the case of `c1cc2c(c(-c3ccoc3)c1)OCCNC2` [Example 15, 9-(3-furyl)-2,3,4,5-tetrahydro-1,4-benzoxazepine hydrochloride], the activation at 1 µM in experiment [1] came out at 96.2%. For the compound `FC(F)(F)c1ccccc1-c1cccc2c1OCCNC2` [Example 12, 9-[2-(trifluoromethyl)phenyl]-2,3,4,5-tetrahydro-1,4-benzoxazepine hydrochloride], the activation at 1 µM in experiment [1] is 93.6%. Still for that read-out and setting: the result for `c1cc2c(cc1N1CCCC1)OCCNC2` [Example 2, 8-(pyrrolidin-1-yl)-2,3,4,5-tetrahydro-1,4-benzoxazepine dihydrochloride] reads 93.1%. The same measure, in the same setting: the same measure for `c1cc2c(cc1N1CCCCC1)OCCNC2` [Example 3, 8-(piperidin-1-yl)-2,3,4,5-tetrahydro-1,4-benzoxazepine dihydrochloride]: 94.3%. In the case of `Clc1ccccc1-c1cccc2c1OCCNC2` [Example 10, 9-(2-chlorophenyl)-2,3,4,5-tetrahydro-1,4-benzoxazepine hydrochloride], in experiment [1], the activation at 1 µM was found to be 94%. On the same count and under the same terms, the same measure for `c1cc2c(cc1N1CCOCC1)OCCNC2` [Example 1, 8-(morpholin-4-yl)-2,3,4,5-tetrahydro-1,4-benzoxazepine hydrochloride]: 95.4%. In the case of `Cl.c1cc2c(c(C3CCC3)c1)OCCNC2` [Example 63, 9-cyclobutyl-2,3,4,5-tetrahydro-1,4-benzoxazepine hydrochloride], the “Urethral closure response, after drug administration” value in experiment [2] (3 mg/kg i.v., 10 min after administration, n=6, bladder pressure raised to 50 cm H2O) amounted to 6.2 ± 0.9 cm H2O. Moreover, the “Urethral closure response, increase” value in experiment [2] (3 mg/kg i.v., difference between after and before drug administration, P < 0.001 vs vehicle) amounted to 4.4 ± 0.7 cm H2O. Further, the “Urethral closure response, before drug administration” value in experiment [2] (baseline of the 3 mg/kg i.v. group, n=6, bladder pressure raised to 50 cm H2O) turned out to be 1.8 ± 0.5 cm H2O. The “effect on urethral closure response induced by increased bladder pressure (in words)” value in experiment [2] (intravenous administration, bladder pressure 0 to 50 cm H2O) is “significantly increased the urethral closure response”. In experiment [1], the activation at 1 µM was 97.6%. For the compound `c1cc2c(c(-c3ccsc3)c1)OCCNC2` [Example 16, 9-(3-thienyl)-2,3,4,5-tetrahydro-1,4-benzoxazepine hydrochloride], the activation at 1 µM in experiment [1] was 99.1%. On the same count and under the same terms, the result for `CC(C)N(C)c1ccc2c(c1)OCCNC2` [Example 4, N-isopropyl-N-methyl-2,3,4,5-tetrahydro-1,4-benzoxazepine-8-amine dihydrochloride] reads 100%; that for `c1ccc(-c2cccc3c2OCCNC3)cc1` [Example 9, 9-phenyl-2,3,4,5-tetrahydro-1,4-benzoxazepine hydrochloride], 93.1%; that for `c1cc2c(c(C3CC3)c1)OCCNC2` [Example 64, 9-cyclopropyl-2,3,4,5-tetrahydro-1,4-benzoxazepine hydrochloride], 94.6%.

On to `FC1(F)CCN(c2cccc3c2OCCNC3)C1` [Example 58, 9-(3,3-difluoropyrrolidin-1-yl)-2,3,4,5-tetrahydro-1,4-benzoxazepine], for which the activation at 1 µM in experiment [1] turned out to be 95.5%.

`c1cc2c(c(C3CCOC3)c1)OCCNC2` (centres unmarked) [Example 55, 9-(tetrahydrofuran-3-yl)-2,3,4,5-tetrahydro-1,4-benzoxazepine hydrochloride]: the activation at 1 µM in experiment [1] was determined as 103%. `CCN(CC)c1ccc2c(c1)OCCNC2` [Example 5, N,N-diethyl-2,3,4,5-tetrahydro-1,4-benzoxazepine-8-amine dihydrochloride]: in experiment [1], the activation at 1 µM worked out at 91.9%. As for `c1cc2c(c(N3CCCC3)c1)OCCNC2` [Example 7, 9-(pyrrolidin-1-yl)-2,3,4,5-tetrahydro-1,4-benzoxazepine dihydrochloride], in experiment [1], the activation at 1 µM worked out at 107%. With `CC(c1cccc2c1OCCNC2)C(F)(F)F` (centres unmarked) [Example 59, 9-(2,2,2-trifluoro-1-methylethyl)-2,3,4,5-tetrahydro-1,4-benzoxazepine hydrochloride], the activation at 1 µM in experiment [1] amounted to 95.2%. `CCN(C)c1ccc2c(c1)OCCNC2` [Example 6, N-ethyl-N-methyl-2,3,4,5-tetrahydro-1,4-benzoxazepine-8-amine dihydrochloride]: the activation at 1 µM in experiment [1] worked out at 102%. In the case of `Cc1ccccc1-c1cccc2c1OCCNC2` [Example 11, 9-(2-methylphenyl)-2,3,4,5-tetrahydro-1,4-benzoxazepine hydrochloride], the activation at 1 µM in experiment [1] was determined as 92.7%.
